Measurements as given in article PMC4757881 (Scientific Reports, 2016).

Experiments:
[1] = target: T1, PPARγ (Homo sapiens, UniProt P37231); assay: fluorescence polarization competition (PolarScreen PPARγ Competitor Assay); GAL4-PPARγ transactivation; assay type: binding
T1 construct: gene PPARG
T1 sequence (P37231 1-505): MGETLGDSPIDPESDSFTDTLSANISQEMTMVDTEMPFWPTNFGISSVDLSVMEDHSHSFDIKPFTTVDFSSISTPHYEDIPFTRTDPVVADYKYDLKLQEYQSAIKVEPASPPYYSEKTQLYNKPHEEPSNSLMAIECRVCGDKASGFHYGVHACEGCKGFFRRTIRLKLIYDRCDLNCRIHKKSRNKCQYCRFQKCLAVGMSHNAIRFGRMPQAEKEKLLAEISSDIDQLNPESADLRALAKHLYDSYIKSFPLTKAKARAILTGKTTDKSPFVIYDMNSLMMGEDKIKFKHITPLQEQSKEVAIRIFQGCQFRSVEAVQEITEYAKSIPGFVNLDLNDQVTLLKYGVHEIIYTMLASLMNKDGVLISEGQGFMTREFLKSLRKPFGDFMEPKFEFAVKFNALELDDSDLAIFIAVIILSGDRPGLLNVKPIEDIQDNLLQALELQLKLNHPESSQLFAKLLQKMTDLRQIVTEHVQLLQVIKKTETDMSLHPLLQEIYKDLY

[2] = target: T2, CB2 receptor (hCB2) (Homo sapiens, UniProt P34972); assay: radioligand competition ([3H]CP55940) on HEK293 membranes expressing hCB2; agonist in CRE-Luc assay; assay type: binding
T2 construct: gene CNR2
T2 sequence (P34972 whole entry): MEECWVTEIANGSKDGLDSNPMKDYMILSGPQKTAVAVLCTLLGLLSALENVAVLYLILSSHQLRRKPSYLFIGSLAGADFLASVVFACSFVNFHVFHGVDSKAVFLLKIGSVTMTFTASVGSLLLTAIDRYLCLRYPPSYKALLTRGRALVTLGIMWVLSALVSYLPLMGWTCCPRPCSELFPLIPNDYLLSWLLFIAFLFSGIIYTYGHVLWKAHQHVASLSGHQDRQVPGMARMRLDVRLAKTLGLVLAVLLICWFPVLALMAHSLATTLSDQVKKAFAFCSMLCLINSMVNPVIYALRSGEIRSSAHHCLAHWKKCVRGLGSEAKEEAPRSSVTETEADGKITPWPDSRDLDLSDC

## C=C(C)[C@@H]1CCC(C)=C[C@H]1C1=C(O)C(=O)C(CCCCC)=C(NCc2ccccc2)C1=O [VCE-004.8]
[1]
  IC50: 1700 nM
[2]
  Ki: 170 ± 50 nM
